Test results reported in article PMC3255464 (2011).

Biological target: galectin-3 carbohydrate recognition domain (Gal3C) (Homo sapiens, UniProt P17931)
Test: X-ray crystal structure at […] Å
Format: binding

Chain of galectin-3 carbohydrate recognition domain (Gal3C) (P17931 113-250): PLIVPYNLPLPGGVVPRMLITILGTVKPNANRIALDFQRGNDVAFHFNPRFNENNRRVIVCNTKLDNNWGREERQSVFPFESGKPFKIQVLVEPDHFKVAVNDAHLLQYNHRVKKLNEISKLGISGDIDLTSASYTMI

Kd: > 100 mM
Compound: OCC(O)CO [glycerol]
